Test results: the NIST ThermoML archive (doi:10.1016/j.jct.2014.11.001)
Where “and” joins values, the source holds several entries; their conditions need not be identical. Equal values may be shown once.

What was measured:
[1] = for Normal melting temperature: DTA
[2] = Molar enthalpy of transition or fusion; settings: Crystal; DSC

NC(=O)c1cccnc1 [3-pyridinecarboxamide]
[1]
Settings	vapor or sublimation pressure
341.25 K, Crystal, Calculated from knudsen effusion weight loss	9.3e-05 kPa
343.28 K, Crystal, Calculated from knudsen effusion weight loss	0.000117 kPa and 0.000116 kPa
345.05 K, Crystal, Calculated from knudsen effusion weight loss	0.000142 kPa and 0.000141 kPa and 0.000144 kPa
347.23 K, Crystal, Calculated from knudsen effusion weight loss	0.000182 kPa and 0.000183 kPa and 0.000184 kPa
349.26 K, Crystal, Calculated from knudsen effusion weight loss	0.000228 kPa and 0.000226 kPa and 0.00023 kPa
351.07 K, Crystal, Calculated from knudsen effusion weight loss	0.000277 kPa and 0.000275 kPa and 0.00028 kPa
353.24 K, Crystal, Calculated from knudsen effusion weight loss	0.000356 kPa and 0.000352 kPa
355.27 K, Crystal, Calculated from knudsen effusion weight loss	0.000434 kPa and 0.00043 kPa and 0.000436 kPa
356.6 K, Crystal, Closed cell (Static) method	0.00051 kPa
357.06 K, Crystal, Calculated from knudsen effusion weight loss	0.000528 kPa and 0.000517 kPa and 0.000525 kPa
358.66 K, Crystal, Closed cell (Static) method	0.00063 kPa
359.25 K, Crystal, Calculated from knudsen effusion weight loss	0.000666 kPa and 0.000648 kPa and 0.000656 kPa
360.58 K, Crystal, Closed cell (Static) method	0.00078 kPa
361.29 K, Crystal, Calculated from knudsen effusion weight loss	0.000812 kPa and 0.000792 kPa and 0.000807 kPa
363.06 K, Crystal, Calculated from knudsen effusion weight loss	0.000975 kPa and 0.000964 kPa and 0.00097 kPa
364.49 K, Crystal, Closed cell (Static) method	0.00116 kPa
366.57 K, Crystal, Closed cell (Static) method	0.00143 kPa
368.47 K, Crystal, Closed cell (Static) method	0.00172 kPa
370.51 K, Crystal, Closed cell (Static) method	0.00211 kPa
372.43 K, Crystal, Closed cell (Static) method	0.00255 kPa
374.46 K, Crystal, Closed cell (Static) method	0.00311 kPa
376.31 K, Crystal, Closed cell (Static) method	0.00371 kPa
378.39 K, Crystal, Closed cell (Static) method	0.00451 kPa
380.33 K, Crystal, Closed cell (Static) method	0.00536 kPa
382.34 K, Crystal, Closed cell (Static) method	0.00647 kPa
384.22 K, Crystal, Closed cell (Static) method	0.00767 kPa
386.28 K, Crystal, Closed cell (Static) method	0.00925 kPa
388.17 K, Crystal, Closed cell (Static) method	0.01094 kPa
390.23 K, Crystal, Closed cell (Static) method	0.01311 kPa
392.23 K, Crystal, Closed cell (Static) method	0.01553 kPa
394.43 K, Crystal, Closed cell (Static) method	0.01868 kPa
396.07 K, Metastable liquid, Closed cell (Static) method	0.02388 kPa
396.08 K, Crystal, Closed cell (Static) method	0.02158 kPa
398.04 K, Metastable liquid, Closed cell (Static) method	0.02729 kPa
398.1 K, Crystal, Closed cell (Static) method	0.02563 kPa
400.07 K, Metastable liquid, Closed cell (Static) method	0.03101 kPa
402.04 K, Metastable liquid, Closed cell (Static) method	0.0351 kPa
404.02 K, Closed cell (Static) method, Liquid	0.03991 kPa
405.98 K, Closed cell (Static) method, Liquid	0.04492 kPa
407.93 K, Closed cell (Static) method, Liquid	0.05046 kPa
409.92 K, Closed cell (Static) method, Liquid	0.05717 kPa
411.89 K, Closed cell (Static) method, Liquid	0.06456 kPa
413.87 K, Closed cell (Static) method, Liquid	0.07284 kPa
415.82 K, Closed cell (Static) method, Liquid	0.08179 kPa
417.81 K, Closed cell (Static) method, Liquid	0.09162 kPa
419.77 K, Closed cell (Static) method, Liquid	0.103 kPa
421.72 K, Closed cell (Static) method, Liquid	0.1152 kPa
423.69 K, Closed cell (Static) method, Liquid	0.1283 kPa
425.65 K, Closed cell (Static) method, Liquid	0.1428 kPa
427.62 K, Closed cell (Static) method, Liquid	0.1598 kPa
429.58 K, Closed cell (Static) method, Liquid	0.1773 kPa
431.56 K, Closed cell (Static) method, Liquid	0.1973 kPa
433.69 K, Closed cell (Static) method, Liquid	0.2206 kPa

Settings	Normal melting temperature [°C]
[1], Crystal	128.1

Settings	Molar enthalpy of transition or fusion [kcal/mol]
[2]	5.66

CN(C)C(=O)c1cccnc1 [N,N-dimethylnicotinamide]
[1]
Settings	vapor or sublimation pressure [kPa]
307.16 K, Metastable liquid, Closed cell (Static) method	0.00057
308.18 K, Crystal, Closed cell (Static) method	0.00049
309.14 K, Metastable liquid, Closed cell (Static) method	0.00069
309.15 K, Crystal, Closed cell (Static) method	0.00056
310.13 K, Crystal, Closed cell (Static) method	0.00062
311.15 K, Crystal, Closed cell (Static) method	0.0007
311.16 K, Metastable liquid, Closed cell (Static) method	0.00082
312.13 K, Crystal, Closed cell (Static) method	0.00078
313.1 K, Crystal, Closed cell (Static) method	0.00088
313.1 K, Metastable liquid, Closed cell (Static) method	0.00099
314.09 K, Crystal, Closed cell (Static) method	0.00098
315.07 K, Metastable liquid, Closed cell (Static) method	0.00118
315.1 K, Crystal, Closed cell (Static) method	0.0011
317.09 K, Metastable liquid, Closed cell (Static) method	0.00142
319.04 K, Closed cell (Static) method, Liquid	0.00169
321.01 K, Closed cell (Static) method, Liquid	0.002
322.97 K, Closed cell (Static) method, Liquid	0.00238
324.98 K, Closed cell (Static) method, Liquid	0.0028
326.94 K, Closed cell (Static) method, Liquid	0.00334
328.93 K, Closed cell (Static) method, Liquid	0.00388
330.88 K, Closed cell (Static) method, Liquid	0.00459
332.9 K, Closed cell (Static) method, Liquid	0.00538
334.96 K, Closed cell (Static) method, Liquid	0.00637
336.93 K, Closed cell (Static) method, Liquid	0.00748
338.92 K, Closed cell (Static) method, Liquid	0.00861
340.89 K, Closed cell (Static) method, Liquid	0.01
342.87 K, Closed cell (Static) method, Liquid	0.01163
344.83 K, Closed cell (Static) method, Liquid	0.0135
346.82 K, Closed cell (Static) method, Liquid	0.01555
348.79 K, Closed cell (Static) method, Liquid	0.0179
350.77 K, Closed cell (Static) method, Liquid	0.02072
352.74 K, Closed cell (Static) method, Liquid	0.02375
354.72 K, Closed cell (Static) method, Liquid	0.02718
356.68 K, Closed cell (Static) method, Liquid	0.03111
358.66 K, Closed cell (Static) method, Liquid	0.03534
360.66 K, Closed cell (Static) method, Liquid	0.04054
362.63 K, Closed cell (Static) method, Liquid	0.04582
364.61 K, Closed cell (Static) method, Liquid	0.05247
366.58 K, Closed cell (Static) method, Liquid	0.05911
368.55 K, Closed cell (Static) method, Liquid	0.06722
370.52 K, Closed cell (Static) method, Liquid	0.07569

Settings	Normal melting temperature [°C]
[1], Crystal	44.2

Settings	Molar enthalpy of transition or fusion [kcal/mol]
[2]	4.64
